Test results taken from publication PMC5438914 (SLAS discovery, 2016).
Read-outs that look alike come from different tables or passages of the source.

Assays:
H. influenzae = experiment: time-kill experiments; details: 4× MIC; for bacteriostatic or bactericidal: 0 to 24 h
[1] = test system: EF-Tu, EF-Ts, EF-G, and PheRS; experiment: specificity assays against the accessory proteins of the A/T system; assay type: biochemical, Pseudomonas aeruginosa; details: tested against each of the four accessory proteins
[2] = test system: human embryonic kidney 293 cells (HEK-293)
S. aureus = experiment: time-kill experiments; details: 4× MIC; for bacteriostatic or bactericidal: 0 to 24 h
PheRS [3] = target: T1, PheRS (Pseudomonas aeruginosa, UniProt Q9I0A3+Q9I0A4); experiment: competition assays with PheRS substrates ATP and Phe; assay type: biochemical; details: IC50 at ATP 25-1000 µM or Phe 25-300 µM; data not shown
T1 sequence (Q9I0A3 whole entry): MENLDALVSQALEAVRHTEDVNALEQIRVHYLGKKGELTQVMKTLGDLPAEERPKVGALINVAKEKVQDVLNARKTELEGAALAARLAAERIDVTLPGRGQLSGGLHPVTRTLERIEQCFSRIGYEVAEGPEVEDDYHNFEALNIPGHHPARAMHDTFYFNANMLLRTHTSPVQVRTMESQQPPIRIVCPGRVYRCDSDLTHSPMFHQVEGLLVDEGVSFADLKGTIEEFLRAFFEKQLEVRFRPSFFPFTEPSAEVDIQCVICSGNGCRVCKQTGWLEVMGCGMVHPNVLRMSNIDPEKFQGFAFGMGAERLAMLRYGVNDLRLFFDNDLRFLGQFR
T1 sequence (Q9I0A4 whole entry): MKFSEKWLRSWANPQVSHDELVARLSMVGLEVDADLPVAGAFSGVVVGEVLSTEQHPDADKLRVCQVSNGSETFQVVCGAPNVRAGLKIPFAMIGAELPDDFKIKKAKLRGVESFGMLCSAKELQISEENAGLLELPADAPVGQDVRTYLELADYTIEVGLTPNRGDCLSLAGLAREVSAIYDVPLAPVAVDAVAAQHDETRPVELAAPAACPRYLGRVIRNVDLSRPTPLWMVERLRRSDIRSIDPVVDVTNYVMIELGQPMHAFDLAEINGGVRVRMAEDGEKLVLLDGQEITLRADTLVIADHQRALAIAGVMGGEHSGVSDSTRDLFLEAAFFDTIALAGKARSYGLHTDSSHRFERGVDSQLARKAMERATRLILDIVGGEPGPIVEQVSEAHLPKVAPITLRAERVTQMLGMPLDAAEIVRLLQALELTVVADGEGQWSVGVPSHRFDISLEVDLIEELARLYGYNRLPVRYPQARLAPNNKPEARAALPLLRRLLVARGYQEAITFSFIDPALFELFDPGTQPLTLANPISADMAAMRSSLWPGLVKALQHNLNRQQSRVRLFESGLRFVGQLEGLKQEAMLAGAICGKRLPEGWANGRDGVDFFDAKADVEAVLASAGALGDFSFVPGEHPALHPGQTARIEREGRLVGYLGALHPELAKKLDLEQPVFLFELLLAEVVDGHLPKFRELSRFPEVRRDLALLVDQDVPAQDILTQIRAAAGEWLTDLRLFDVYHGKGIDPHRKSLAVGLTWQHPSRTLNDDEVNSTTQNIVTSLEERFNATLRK

[4] = test system: human embryonic kidney 293 cells (HEK-293); experiment: MTT cytotoxicity test; details: HEK-293, MTT, 24 h
PheRS [5] = target: T1, PheRS; experiment: tRNA aminoacylation assay; assay type: biochemical
[6] = target: T2, human mitochondrial PheRS (hmPheRS) (Homo sapiens, UniProt O95363); experiment: hmPheRS aminoacylation assay; assay type: biochemical; details: 0.4 to 200 µM; at high concentrations
T2 sequence (O95363 1-451): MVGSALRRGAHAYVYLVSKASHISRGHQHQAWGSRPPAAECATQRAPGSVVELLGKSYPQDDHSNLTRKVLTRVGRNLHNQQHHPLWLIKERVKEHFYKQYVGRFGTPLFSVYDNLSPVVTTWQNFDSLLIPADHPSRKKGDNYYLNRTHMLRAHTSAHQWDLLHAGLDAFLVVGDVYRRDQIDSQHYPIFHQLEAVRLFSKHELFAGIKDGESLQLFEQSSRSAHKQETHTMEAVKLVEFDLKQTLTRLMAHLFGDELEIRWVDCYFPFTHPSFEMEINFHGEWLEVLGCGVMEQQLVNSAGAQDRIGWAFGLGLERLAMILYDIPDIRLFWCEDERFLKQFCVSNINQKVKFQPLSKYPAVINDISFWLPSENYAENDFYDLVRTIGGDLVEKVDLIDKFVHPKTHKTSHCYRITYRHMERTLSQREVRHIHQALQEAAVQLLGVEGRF

[7] = test system: eukaryotic protein synthesis in wheat germ cell extract; experiment: wheat germ cell extract poly-Phe protein synthesis assay; assay type: biochemical; details: at 30 µM

Structure (SMILES) | bacteriostatic or bactericidal (H. influenzae) | growth in time-kill cultures (H. influenzae; up to 24 h) | specificity for a single component of the A/T assay [1] | IC50 (or CC50) for inhibition of cell growth [2] | bacteriostatic or bactericidal (S. aureus) | growth in time-kill cultures (S. aureus; up to 24 h) | mechanism of inhibition with respect to ATP and Phe (PheRS [3]) | decrease in colony-forming units (CFU) compared with the control (H. influenzae; during the first 6 h) | IC50 (or CC50) for inhibition of cell growth [4] | IC50 (PheRS [5]) | decrease in colony-forming units (CFU) compared with the control (S. aureus; during the first 6 h) | effect on the activity of hmPheRS [6] | inhibition of protein synthesis [7]
N=C(N)NN=C(/C=C/c1ccc([N+](=O)[O-])o1)/C=C/c1ccc([N+](=O)[O-])o1 [BT06D07, difurazone] | bactericidal | inhibited the growth of both bacteria completely during all times tested | did not inhibit an accessory protein | > 400 µg/mL | bactericidal | inhibited the growth of both bacteria completely during all times tested | – | – | – | – | – | – | –
O=C(N/N=C/c1ccc([N+](=O)[O-])o1)c1cc([N+](=O)[O-])cc([N+](=O)[O-])c1O [BT06G06, nifursol] | bacteriostatic | – | specifically inhibit PheRS | – | bacteriostatic | – | noncompetitive with both of the natural substrates | 2 to 4 log10 | 18.5 µg/mL | 60.5 µM | 2 to 4 log10 | only modestly affected | –
C[C@@H]1C[C@@H]([C@H](O)CC2CC(=O)NC(=O)C2)C(=O)[C@@H](C)C1 [cycloheximide] | – | – | – | – | – | – | – | – | – | – | – | – | greater than 80%
